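Dose response: 5 concentrations. Exposure: 48 h. Format: 96-well plates. Endpoint: linear interpolation; highest concentration if not reached. GI50 is the concentration that inhibits growth by half.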 Activity calls are given as the source filed them. Rule as the data show it: active = GI50 up to about 1.1 µM and inactive = higher.
Columns and labels:
Assay in all cases: NCI anticancer screen, dose series, 48 h
[1] = tested on: HCC 2998
[2] = tested on: CAKI-1
[3] = tested on: SR
[4] = tested on: HCT-116
[5] = tested on: A498
[6] = tested on: NCI-H522
[7] = tested on: LOX IMVI
[8] = tested on: UACC-62
[9] = tested on: HOP-18
[10] = tested on: SK-MEL-2
[11] = tested on: ACHN
[12] = tested on: SF-268
[13] = tested on: SF-295
[14] = tested on: LXFL 529
[15] = tested on: HT-29
[16] = tested on: SK-MEL-28
[17] = tested on: KM-20L2
[18] = tested on: CCRF-CEM
[19] = tested on: RXF 393
[20] = tested on: Malme-3M
[21] = tested on: KM12
[22] = tested on: OVCAR-3
[23] = tested on: M14
[24] = tested on: DLD-1
[25] = tested on: SNB-78
[26] = tested on: RPMI-8226
[27] = tested on: NCI-H460
[28] = tested on: SK-MEL-5
[29] = tested on: DMS-273
[30] = tested on: OVCAR-8
[31] = tested on: OVCAR-5
[32] = tested on: HCT-15
[33] = tested on: XF498
[34] = tested on: SW-620
[35] = tested on: HL-60
[36] = tested on: UACC-257
[37] = tested on: SN12C
[38] = tested on: RXF 631
[39] = tested on: M19-MEL
[40] = tested on: NCI-H23
[41] = tested on: A549
[42] = tested on: EKVX
[43] = tested on: NCI-H226
[44] = tested on: K562
[45] = tested on: DMS-114
[46] = tested on: IGROV-1
[47] = tested on: COLO 205
[48] = tested on: MOLT-4
[49] = tested on: OVCAR-4
[50] = tested on: 786-0
[51] = tested on: UO-31
[52] = tested on: HOP-62
[53] = tested on: SNB-19
[54] = tested on: SF-539
[55] = tested on: SK-OV-3
[56] = tested on: SNB-75
[57] = tested on: TK-10
[58] = tested on: U-251
[59] = tested on: HOP-92

O=C(CCc1nnc2s/c(=C\c3ccc4c(c3)OCO4)c(=O)n12)Nc1cc(Cl)ccc1Cl
GI50 [1]: > 100 µM (inactive) | GI50 [2]: > 100 µM (inactive) | GI50 [3]: > 100 µM (inactive) | GI50 [4]: > 50.9 µM (inactive) | GI50 [5]: > 100 µM (inactive) | GI50 [6]: > 100 µM (inactive) | GI50 [7]: > 100 µM (inactive) | GI50 [8]: > 100 µM (inactive) | GI50 [9]: > 100 µM (inactive) | GI50 [10]: > 100 µM (inactive) | GI50 [11]: > 100 µM (inactive) | GI50 [12]: > 100 µM (inactive) | GI50 [13]: > 100 µM (inactive) | GI50 [14]: > 100 µM (inactive) | GI50 [15]: > 100 µM (inactive) | GI50 [16]: > 100 µM (inactive) | GI50 [17]: > 100 µM (inactive) | GI50 [18]: > 100 µM (inactive) | GI50 [19]: > 100 µM (inactive) | GI50 [20]: > 100 µM (inactive) | GI50 [21]: > 100 µM (inactive) | GI50 [22]: > 100 µM (inactive) | GI50 [23]: > 100 µM (inactive) | GI50 [24]: > 100 µM (inactive) | GI50 [25]: > 100 µM (inactive) | GI50 [26]: > 78.5 µM (inactive) | GI50 [27]: > 100 µM (inactive) | GI50 [28]: > 100 µM (inactive) | GI50 [29]: > 55.1 µM (inactive) | GI50 [30]: > 100 µM (inactive) | GI50 [31]: > 100 µM (inactive) | GI50 [32]: > 39.8 µM | GI50 [33]: > 100 µM (inactive) | GI50 [34]: > 43.6 µM (inactive) | GI50 [35]: > 55.2 µM (inactive) | GI50 [36]: > 100 µM (inactive) | GI50 [37]: > 100 µM (inactive) | GI50 [38]: > 100 µM (inactive) | GI50 [39]: > 100 µM (inactive) | GI50 [40]: > 100 µM (inactive) | GI50 [41]: > 100 µM (inactive) | GI50 [42]: > 100 µM (inactive) | GI50 [43]: > 100 µM (inactive) | GI50 [44]: > 100 µM (inactive) | GI50 [45]: > 100 µM (inactive) | GI50 [46]: > 100 µM (inactive) | GI50 [47]: > 74.1 µM (inactive) | GI50 [48]: > 100 µM (inactive) | GI50 [49]: > 100 µM (inactive) | GI50 [50]: > 100 µM (inactive) | GI50 [51]: > 100 µM (inactive) | GI50 [52]: > 100 µM (inactive) | GI50 [53]: > 100 µM (inactive) | GI50 [54]: > 100 µM (inactive) | GI50 [55]: > 100 µM (inactive) | GI50 [56]: > 100 µM (inactive) | GI50 [57]: > 100 µM (inactive) | GI50 [58]: > 100 µM (inactive) | GI50 [59]: > 100 µM (inactive)

CCc1ccccc1NC(=O)C(=O)C(C#N)c1ccccc1Cl (stereo not given)
GI50 [1]: > 100 µM (inactive) | GI50 [4]: > 100 µM (inactive) | GI50 [5]: 35.5 µM (inactive) | GI50 [7]: 3.36 µM (inactive) | GI50 [8]: > 100 µM (inactive) | GI50 [9]: > 100 µM (inactive) | GI50 [10]: > 100 µM (inactive) | GI50 [11]: > 100 µM (inactive) | GI50 [12]: > 100 µM (inactive) | GI50 [13]: > 100 µM (inactive) | GI50 [14]: > 100 µM (inactive) | GI50 [15]: > 100 µM (inactive) | GI50 [16]: > 100 µM (inactive) | GI50 [17]: > 100 µM (inactive) | GI50 [18]: > 100 µM (inactive) | GI50 [19]: > 100 µM (inactive) | GI50 [20]: > 100 µM (inactive) | GI50 [21]: > 100 µM (inactive) | GI50 [22]: > 100 µM (inactive) | GI50 [23]: > 100 µM (inactive) | GI50 [24]: > 100 µM (inactive) | GI50 [25]: > 100 µM (inactive) | GI50 [26]: > 100 µM (inactive) | GI50 [27]: 16.9 µM (inactive) | GI50 [28]: > 100 µM (inactive) | GI50 [30]: > 100 µM (inactive) | GI50 [31]: > 100 µM (inactive) | GI50 [33]: > 100 µM (inactive) | GI50 [34]: > 100 µM (inactive) | GI50 [35]: > 100 µM (inactive) | GI50 [36]: > 100 µM (inactive) | GI50 [37]: > 100 µM (inactive) | GI50 [38]: > 100 µM (inactive) | GI50 [39]: > 100 µM (inactive) | GI50 [40]: > 100 µM (inactive) | GI50 [41]: > 100 µM (inactive) | GI50 [42]: > 100 µM (inactive) | GI50 [43]: > 100 µM (inactive) | GI50 [45]: > 100 µM (inactive) | GI50 [46]: > 100 µM (inactive) | GI50 [47]: > 100 µM (inactive) | GI50 [48]: > 100 µM (inactive) | GI50 [49]: > 100 µM (inactive) | GI50 [50]: > 100 µM (inactive) | GI50 [51]: > 100 µM (inactive) | GI50 [52]: > 100 µM (inactive) | GI50 [53]: > 100 µM (inactive) | GI50 [56]: > 100 µM (inactive) | GI50 [57]: 2.55 µM (inactive) | GI50 [58]: > 100 µM (inactive) | GI50 [59]: > 100 µM (inactive)

Source: ChEMBL document CHEMBL1201862, “PubChem BioAssay data set” (2004)
